Experimental data from ChEMBL document CHEMBL1150182, “Lissoclinolide, the first non-nitrogenous metabolite from a Lissoclinum tunicate” (J Nat Prod, 1990).
Active and inactive are the calls of the source. The rule behind the calls is not given here.

Test system: Escherichia coli
Assay: Antibacterial activity against Escherichia coli
Format: functional, organism-based

O=C1O/C(=C\C=C\CO)C=C1/C=C/CO
Activity: inactive
